Key:
[1] = target: D(2) dopamine receptor (Rattus norvegicus, UniProt P61169); assay: Concentration that produces 50 % displacement of specific [3H]spiroperidol binding to rat caudate membrane preparations.
[2] = Concentration that produces 50 % displacement of specific [3H]clonidine binding to Alpha adrenergic receptor in rat brain cortical membrane preparations.; type: cell membranes
[3] = target: T1, cyclic AMP phosphoprotein (Rattus norvegicus, UniProt Q712U5); assay: Effective concentration that gives maximal stimulation of cyclic AMP production over the concentration range tested; b=Inactive; type: functional
T1 sequence (Q712U5 whole entry): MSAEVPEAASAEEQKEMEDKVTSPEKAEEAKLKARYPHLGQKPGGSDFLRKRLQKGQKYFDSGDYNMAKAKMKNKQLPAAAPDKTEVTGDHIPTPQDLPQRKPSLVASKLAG

Chain of D(2) dopamine receptor (P61169 whole entry): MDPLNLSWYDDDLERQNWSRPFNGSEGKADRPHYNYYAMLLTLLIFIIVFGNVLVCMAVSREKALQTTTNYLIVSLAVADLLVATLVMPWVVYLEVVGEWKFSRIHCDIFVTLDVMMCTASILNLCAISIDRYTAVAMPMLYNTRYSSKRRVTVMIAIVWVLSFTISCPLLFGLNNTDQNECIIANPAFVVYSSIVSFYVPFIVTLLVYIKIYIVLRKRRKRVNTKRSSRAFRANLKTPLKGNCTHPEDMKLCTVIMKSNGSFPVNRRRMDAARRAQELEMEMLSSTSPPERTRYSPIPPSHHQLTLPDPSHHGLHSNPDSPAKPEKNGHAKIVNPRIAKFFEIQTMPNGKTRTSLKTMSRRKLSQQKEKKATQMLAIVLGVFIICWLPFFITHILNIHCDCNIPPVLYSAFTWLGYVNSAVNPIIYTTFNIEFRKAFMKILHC

SMILES	IC50 [1] [µM]	IC50 [2] [µM]	EC50 [3]
CN1Cc2c(N)cccc2[C@H](c2ccc(O)c(O)c2)C1	85.8	0.6	–
CN1Cc2c(N)cccc2C(c2ccc(O)c(O)c2)C1 (stereo not drawn)	92	1.39	–
CN1Cc2c(N)cccc2[C@@H](c2ccc(O)c(O)c2)C1	99.1	27.7	Not Active
NCCc1ccc(O)c(O)c1 [DOPAMINE]	–	0.061	–

Reference: ChEMBL document CHEMBL1122767, “Synthesis, resolution, absolute stereochemistry, and enantioselectivity of 3',4'-dihydroxynomifensine” (J Med Chem, 1984)
